Converted amounts (≈) assume the structure as drawn. Read-outs that look alike come from different tables or passages of the source.
Legend:
[1] = tested on: Salmonella spp.; assay: MIC by agar dilution (NCCLS M7-A4), 288 enteropathogenic isolates, eight quinolones; assay type: cell-based; conditions: for MIC: ciprofloxacin MIC ≥[…], read-out: MIC
[2] = tested on: Hafnia alvei; assay: as above; assay type: cell-based; conditions: Hafnia alvei (n = 32)
[3] = tested on: Yersinia enterocolitica; assay: as above; assay type: cell-based; conditions: Yersinia enterocolitica (n = 22)
[4] = tested on: Shigella spp.; assay: as above; assay type: cell-based; conditions: Shigella spp. (n = 21)
[5] = tested on: Aeromonas spp.; assay: as above; assay type: cell-based; conditions: Aeromonas spp. (n = 16)
[6] = tested on: Campylobacter jejuni; assay: MIC by agar dilution (NCCLS M7-A4), 5% sheep blood, microaerophilic 48 h; assay type: cell-based; conditions: Campylobacter jejuni (n=91)
[7] = tested on: Salmonella spp.; assay: MIC by agar dilution (NCCLS M7-A4), 288 enteropathogenic isolates, gemifloxacin and 15 other antimicrobials; assay type: cell-based
[8] = tested on: Hafnia alvei; assay: as above; assay type: cell-based; conditions: Hafnia alvei N= 32
[9] = tested on: Yersinia enterocolitica; assay: as above; assay type: cell-based; conditions: Yersinia enterocolitica N= 22
[10] = tested on: Shigella spp.; assay: as above; assay type: cell-based; conditions: Shigella spp. N= 21
Procedure: [A. hydrophila (12), and A. sobria (4)], and 91 Campylobacter jejuni. […] The strains were stored in skimmed-milk at -80 °C until studied.
The plates were incubated aerobically at 35 °C for 24 h, except for Campylobacter jejuni, where a microaerophilic atmosphere was obtained by using Campy Pack (Becton Dickinson, Cockeysville, MD, USA), and incubation was for 48 h. All organisms were tested with an inoculum of ≅ 10^4 cfu/spot. MICs were defined as the lower antibiotic concentration with no visible growth.

[11] = tested on: Aeromonas spp.; assay: as above; assay type: cell-based; conditions: Aeromonas spp. N= 16
[12] = tested on: Campylobacter jejuni; assay: as above; conditions: Campylobacter jejuni
[13] = 24 h, read-out: MIC (mg/L) Range

CCn1cc(C(=O)O)c(=O)c2cc(F)c(N3CCNCC3)cc21 [Norfloxacin, norfloxacin]
MIC ([1]; S. hadar (n = 2)): 4 µg/mL (≈ 12.5 µM) | MIC ([1]; S. newport (n = 1)): 2 µg/mL (≈ 6.26 µM) | MIC ([1]; S. virchow (n = 2)): 0.5 µg/mL (≈ 1.57 µM) | % Susceptible ([1]; Salmonella spp. (n = 106)): 100% | MIC50 ([1]; Salmonella spp. (n = 106)): 0.06 µg/mL (≈ 0.188 µM) | MIC90 ([1]; Salmonella spp. (n = 106)): 0.5 µg/mL (≈ 1.57 µM) | MIC Range ([1]; Salmonella spp. (n = 106)): 0.06 to 4 µg/mL | MIC ([1]; Salmonella, S. tshiongwe (n = 1)): 4 µg/mL (≈ 12.5 µM) | % Susceptible [2]: 100% | MIC50 [2]: 0.03 µg/mL (≈ 0.0939 µM) | MIC90 [2]: 0.03 µg/mL (≈ 0.0939 µM) | MIC Range [2]: ≤0.015 to 0.03 µg/mL | % Susceptible [3]: 100% | MIC50 [3]: 0.06 µg/mL (≈ 0.188 µM) | MIC90 [3]: 0.06 µg/mL (≈ 0.188 µM) | MIC Range [3]: 0.06 to 0.5 µg/mL | % Susceptible [4]: 100% | MIC50 [4]: 0.06 µg/mL (≈ 0.188 µM) | MIC90 [4]: 0.06 µg/mL (≈ 0.188 µM) | MIC Range [4]: 0.03 to 0.06 µg/mL | % Susceptible [5]: 100% | MIC50 [5]: ≤ 0.015 µg/mL | MIC90 [5]: 0.03 µg/mL (≈ 0.0939 µM) | MIC Range [5]: ≤0.015 to 0.12 µg/mL | % Susceptible [6]: 31.86% | MIC50 [6]: 128 µg/mL (≈ 401 µM) | MIC90 [6]: > 128 µg/mL | MIC ([7]; S. hadar(2), isolates with MICs for ciprofloxacin ≥[…], read-out: MIC): 4 mg/L (≈ 12.5 µM) | MIC ([7]; S. newport(1), isolate with MIC for ciprofloxacin ≥[…], read-out: MIC): 2 mg/L (≈ 6.26 µM) | MIC ([7]; S. virchow(2), isolates with MICs for ciprofloxacin ≥[…], read-out: MIC): 0.5 mg/L (≈ 1.57 µM) | MIC (mg/L) Range ([7]; Salmonella spp. N= 106): 0.06 to 4 mg/L | MIC ([7]; Salmonella, S. tshiongwe(1), isolate with MIC for ciprofloxacin ≥[…], read-out: MIC): 4 mg/L (≈ 12.5 µM) | MIC ([7]; Salmonella, read-out: MIC (mg/L) 50%, Salmonella spp. N= 106): 0.06 mg/L (≈ 0.188 µM) | MIC ([7]; Salmonella, read-out: MIC (mg/L) 90%, Salmonella spp. N= 106): 0.5 mg/L (≈ 1.57 µM) | MIC [8, 13]: 0.015 to 0.03 mg/L (≈ 0.047 to 0.0939 µM) | MIC ([8]; read-out: MIC (mg/L) 50%): 0.03 mg/L (≈ 0.0939 µM) | MIC ([8]; read-out: MIC (mg/L) 90%): 0.03 mg/L (≈ 0.0939 µM) | MIC [9, 13]: 0.06 to 0.5 mg/L (≈ 0.188 to 1.57 µM) | MIC ([9]; read-out: MIC (mg/L) 50%): 0.06 mg/L (≈ 0.188 µM) | MIC ([9]; read-out: MIC (mg/L) 90%): 0.06 mg/L (≈ 0.188 µM) | MIC [10, 13]: 0.03 to 0.06 mg/L (≈ 0.0939 to 0.188 µM) | MIC ([10]; read-out: MIC (mg/L) 50%): 0.06 mg/L (≈ 0.188 µM) | MIC ([10]; read-out: MIC (mg/L) 90%): 0.06 mg/L (≈ 0.188 µM) | MIC (mg/L) Range [11]: ≤0.015 to 0.12 mg/L | MIC ([11]; read-out: MIC (mg/L) 50%): ≤ 0.015 mg/L | MIC ([11]; read-out: MIC (mg/L) 90%): 0.03 mg/L (≈ 0.0939 µM) | MIC ([12]; read-out: MIC (mg/L) 50%): 128 mg/L (≈ 401 µM) | MIC ([12]; read-out: MIC (mg/L) 90%): > 128 mg/L

Source: patent publication EP1561465A2, “Methods of use of fluoroquinolone compounds against bacteria” (LG Life Sciences, Ltd., priority 1999, dated 2001)
